Assay results: paper PMC6979384, “Characterization of the plant homeodomain (PHD) reader family for their histone tail interactions” (Epigenetics & Chromatin, 2020)

Key:
Test in all cases: Histone peptide microarray
Format in all cases: binding, human
CHD5 (PCC) = settings: sheet "Array Heatmap"; GST-tagged CHD5 (PCC); arrays performed twice, total replicate number n = 4
How it was run: (§1)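 Steps: express and purify GST-tagged PHD reader; incubate 0.5 μM protein on a peptide microarray (293 histone peptides, single or combined PTMs) following an optimized protocol; average signal across 4 replicates.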

KDM5B (1) = settings: sheet "Array Heatmap"; GST-tagged KDM5B (1); arrays performed twice, total replicate number n = 4
How it was run: as §1

KDM5A (1) = settings: sheet "Array Heatmap"; GST-tagged KDM5A (1); arrays performed twice, total replicate number n = 4
How it was run: as §1

DIDO1 = settings: sheet "Array Heatmap"; GST-tagged DIDO1; arrays performed twice, total replicate number n = 4
How it was run: as §1

RAG2 = settings: sheet "Array Heatmap"; GST-tagged RAG2; arrays performed twice, total replicate number n = 4
How it was run: as §1

KDM5A (3) = settings: sheet "Array Heatmap"; GST-tagged KDM5A (3); arrays performed twice, total replicate number n = 4
How it was run: as §1

PHF21A = settings: sheet "Array Heatmap"; GST-tagged PHF21A; arrays performed twice, total replicate number n = 4
How it was run: as §1

ING4 = settings: sheet "Array Heatmap"; GST-tagged ING4; arrays performed twice, total replicate number n = 4
How it was run: as §1

ING5 = settings: sheet "Array Heatmap"; GST-tagged ING5; arrays performed twice, total replicate number n = 4
How it was run: as §1

BAZ2B = settings: sheet "Array Heatmap"; GST-tagged BAZ2B; arrays performed twice, total replicate number n = 4
How it was run: as §1

PHF23 = settings: sheet "Array Heatmap"; GST-tagged PHF23; arrays performed twice, total replicate number n = 4
How it was run: as §1

AIRE (PP) = settings: sheet "Array Heatmap"; GST-tagged AIRE (PP); arrays performed twice, total replicate number n = 4
How it was run: as §1

ING1 = settings: sheet "Array Heatmap"; GST-tagged ING1; arrays performed twice, total replicate number n = 4
How it was run: as §1

PHRF1 (RP) = settings: sheet "Array Heatmap"; GST-tagged PHRF1 (RP); arrays performed twice, total replicate number n = 4
How it was run: as §1

CHD5 (PPCC) = settings: sheet "Array Heatmap"; GST-tagged CHD5 (PPCC); arrays performed twice, total replicate number n = 4
How it was run: as §1

PHF2 = settings: sheet "Array Heatmap"; GST-tagged PHF2; arrays performed twice, total replicate number n = 4
How it was run: as §1

PHF8 = settings: sheet "Array Heatmap"; GST-tagged PHF8; arrays performed twice, total replicate number n = 4
How it was run: as §1

TAF3 = settings: sheet "Array Heatmap"; GST-tagged TAF3; arrays performed twice, total replicate number n = 4
How it was run: as §1

ING2 = settings: sheet "Array Heatmap"; GST-tagged ING2; arrays performed twice, total replicate number n = 4
How it was run: as §1

PHF13 = settings: sheet "Array Heatmap"; GST-tagged PHF13; arrays performed twice, total replicate number n = 4
How it was run: as §1

TRIM66 (PB) = settings: sheet "Array Heatmap"; GST-tagged TRIM66 (PB); arrays performed twice, total replicate number n = 4
How it was run: as §1

DPF2 (PPC2W2) = settings: sheet "Array Heatmap"; GST-tagged DPF2 (PPC2W2); arrays performed twice, total replicate number n = 4
How it was run: as §1

SP140L = settings: sheet "Array Heatmap"; GST-tagged SP140L; arrays performed twice, total replicate number n = 4
How it was run: as §1

KDM4C (TTP) = settings: sheet "Array Heatmap"; GST-tagged KDM4C (TTP); arrays performed twice, total replicate number n = 4
How it was run: as §1

MORC3 (CW) = settings: sheet "Array Heatmap"; GST-tagged MORC3 (CW); arrays performed twice, total replicate number n = 4
How it was run: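 GST-tagged PHD readers, 0.5 μM, probed on a microarray of 293 synthetic histone peptides carrying single or combinatorial PTMs (optimized Petell protocol). Signals are averaged over 4 replicates and expressed as relative binding.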

KDM7A = settings: sheet "Array Heatmap"; GST-tagged KDM7A; arrays performed twice, total replicate number n = 4
How it was run: as §1

BPTF (PB) = settings: sheet "Array Heatmap"; GST-tagged BPTF (PB); arrays performed twice, total replicate number n = 4
How it was run: as §1

ING3 = settings: sheet "Array Heatmap"; GST-tagged ING3; arrays performed twice, total replicate number n = 4
How it was run: as §1

CHD4 (PPCC) = settings: sheet "Array Heatmap"; GST-tagged CHD4 (PPCC); arrays performed twice, total replicate number n = 4
How it was run: as §1

KDM5B (3) = settings: sheet "Array Heatmap"; GST-tagged KDM5B (3); arrays performed twice, total replicate number n = 4
How it was run: as §1

MLL5 = settings: sheet "Array Heatmap"; GST-tagged MLL5; arrays performed twice, total replicate number n = 4
How it was run: as §1

Substance | Array Heatmap signal, CHD5 (PCC) (CHD5 (PCC)) | Array Heatmap signal, KDM5B (1) (KDM5B (1)) | Array Heatmap signal, KDM5A (1) (KDM5A (1)) | Array Heatmap signal, DIDO1 (DIDO1) | Array Heatmap signal, RAG2 (RAG2) | Array Heatmap signal, KDM5A (3) (KDM5A (3)) | Array Heatmap signal, PHF21A (PHF21A) | Array Heatmap signal, ING4 (ING4) | Array Heatmap signal, ING5 (ING5) | Array Heatmap signal, BAZ2B (BAZ2B) | Array Heatmap signal, PHF23 (PHF23) | Array Heatmap signal, AIRE (PP) (AIRE (PP)) | Array Heatmap signal, ING1 (ING1) | Array Heatmap signal, PHRF1 (RP) (PHRF1 (RP)) | Array Heatmap signal, CHD5 (PPCC) (CHD5 (PPCC)) | Array Heatmap signal, PHF2 (PHF2) | Array Heatmap signal, PHF8 (PHF8) | Array Heatmap signal, TAF3 (TAF3) | Array Heatmap signal, ING2 (ING2) | Array Heatmap signal, PHF13 (PHF13) | further results
H3K4ac + K9me1 + K14ac + K18ac: H3 1-20 | 0.8198 | 0.6293 | 0.4805 | 0.5412 | 0.2267 | 0.3935 | 0.4512 | 0.4584 | 0.3469 | 0.5783 | 0.4792 | 0.5251 | 0.4555 | 0.3692 | 0.5431 | 0.368 | 0.3261 | 0.2619 | 0.5869 | 0.5879 | Array Heatmap signal, TRIM66 (PB) (TRIM66 (PB)): 0.5413; Array Heatmap signal, DPF2 (PPC2W2) (DPF2 (PPC2W2)): 0.6154; Array Heatmap signal, SP140L (SP140L): 0.3469; Array Heatmap signal, KDM4C (TTP) (KDM4C (TTP)): 0.5174; Array Heatmap signal, MORC3 (CW) (MORC3 (CW)): 0.3311; Array Heatmap signal, KDM7A (KDM7A): 0.4836; Array Heatmap signal, BPTF (PB) (BPTF (PB)): 0.3424; Array Heatmap signal, ING3 (ING3): 0.4265; Array Heatmap signal, CHD4 (PPCC) (CHD4 (PPCC)): 0.5629; Array Heatmap signal, KDM5B (3) (KDM5B (3)): 0.497; Array Heatmap signal, MLL5 (MLL5): 0.5142
H3K4ac + K9me2 + K14ac + K18ac: H3 1-20 | 0.8289 | 0.6474 | 0.4994 | 0.6996 | 0.2604 | 0.4792 | 0.517 | 0.4857 | 0.3863 | 0.5255 | 0.5641 | 0.5959 | 0.5602 | 0.5426 | 0.5961 | 0.5092 | 0.3959 | 0.2754 | 0.6022 | 0.6376 | Array Heatmap signal, TRIM66 (PB) (TRIM66 (PB)): 0.6234; Array Heatmap signal, DPF2 (PPC2W2) (DPF2 (PPC2W2)): 0.7053; Array Heatmap signal, SP140L (SP140L): 0.3786; Array Heatmap signal, KDM4C (TTP) (KDM4C (TTP)): 0.5332; Array Heatmap signal, MORC3 (CW) (MORC3 (CW)): 0.4166; Array Heatmap signal, KDM7A (KDM7A): 0.3693; Array Heatmap signal, BPTF (PB) (BPTF (PB)): 0.3687; Array Heatmap signal, ING3 (ING3): 0.5023; Array Heatmap signal, CHD4 (PPCC) (CHD4 (PPCC)): 0.5924; Array Heatmap signal, KDM5B (3) (KDM5B (3)): 0.5157; Array Heatmap signal, MLL5 (MLL5): 0.5581
